What was measured:
diabetic C57 mice [1] = experiment: Allogeneic islet transplantation in the liver of diabetic mice; settings: for Odds ratio, Multivariate Cox Regression Analysis of loss of graft survival: Reparixin 95% CI 0.099-0.64, p=0.004, Rapamycin 95% CI 0.562-2.45, p=0.67; for Odds ratio, Multivariate Cox Regression Analysis of reaching primary function: allogeneic transplant, Reparixin 95% CI 0.79-2.99, p<0.202, Rapamycin 95% CI 0.62-2.15, p<0.62; for probability to reach the primary function (glycaemia<250 mg/dl) / median time to reach the primary function (glycaemia<250 mg/dl): allogeneic, 400 IE in liver; for probability to reach the primary function (glycaemia<250 mg/dl): Reparixin 5.28 mg/kg/h s.c. day -1 to 7, Rapamycin i.p. 0.3 then 0.15 mg/kg to day 14, vehicle 44%; for median time to reach the primary function (glycaemia<250 mg/dl): vehicle 2 days; for median survival time (graft): mice that achieved primary function, vehicle 8±0.5 days
Description: Islets from 12 week old Balb/c mice were transplanted in the liver of diabetic C57 mice (alloxan, glycaemia>450 mg/dl). […] In both cases 400 IE were transplanted.
The ability to reach primary function, defined as non-fasting blood glucose levels less than 250 mg/dl for 2 consecutive measurements after islet transplantation and the time to rejection defined as 2 consecutive non-fasting blood glucose readings greater than 300 mg/dL were first evaluated.

diabetic C57 mice [2] = experiment: Syngeneic islet transplantation in the liver of diabetic mice; assay type: in vivo
Description: Two different marginal islet mass models, 150 IE (Islet Equivalents) and 250 IE, were used. […] Control animals received continuous s.c. vehicle.
The ability to reach a non-fasting blood glucose level less than 200 mg/dl for two consecutive measurements after islet transplantation was first evaluated.
An intravenous glucose tolerance test (IVGTT) and an oral glucose tolerance test (OGTT) were performed 1 and 3 months after transplantation to evaluate the functionality of the grafted islets. IVGTT was initiated after a 16-hour fast; the mice were given glucose (0.5 g/kg) by tail vein injection. Blood samples were obtained 0, 1, 5, 15, 20, 30 and 60 minutes after injection and were used to determine glucose concentrations. From the IVGTT, glucose tolerance was quantified from the glucose elimination constant (KG; expressed as percent elimination of glucose per minute) as the reduction in circulating glucose between 1 and 15 min (KG1-15) after intravenous administration, following the logarithmic transformation of the individual plasma glucose values. A similar estimation was performed for the total 1- to 60-min glucose disappearance rate (KG 1-60). This parameter indicates the rate of glucose disappearance during the whole test. OGTT was initiated after a 4-hour fast; the mice were given glucose (1 g/kg) by oral gavage. Blood samples were obtained 0, 10, 20, 30, 60, 90 and 120 minutes after glucose administration and used to determine glucose concentrations. The area under the curve (AUC) for glucose during OGTT was calculated using the trapezoidal method (baseline=0 min). […] The data are reported as scatter plots. […] Upper and lower panels respectively report the data 1 and 3 months after transplantation.
Acute liver damage was quantified by circulating levels of alanine aminotransferase (ALT) 24 h and 48 h after Transplantation.

[3] = tested on: intrahepatic leukocyte (IHL) population; experiment: Intrahepatic leukocyte population after allogeneic intrahepatic islet transplantation (flow cytometry); assay type: in vivo, mice
Description: The intrahepatic leukocyte population was analysed in the presence or in the absence of Reparixin treatment after allogeneic intrahepatic islet transplantation in mice. […] The mice were sacrificed at day 0, +1, +3, +5, +7, +10, +14 after islet transplantation and the livers were weighed at the time of autopsy. Single cell suspensions were prepared from two liver lobes of known weight and analysis of the intrahepatic leukocyte (IHL) population was performed flow cytometry. The cells were surface stained with fluorescein isothiocyanate (FITC)-, phycoerythrin (PE)- or allophycocyanin (APC)-labeled anti-CD4, anti-CD8, anti-CD3, anti CD19, anti-TCR, anti-NK1.1, anti CD11, anti-Gr-1, anti-CD11b, and anti-CD11c Abs (PharMingen, San Diego, Calif.) for the detection of Gr-^+/CD11b^+/CD11c^− cells (mostly PMNs), […] (mostly T helper cell), CD8^+/TCR^+ cells (mostly CTLs), […], NK1.1^+/CD3^+ cells (NKT cells) and Gr-1^−/CD11b^−/CD11c^− (mostly macrophages), CD115+/CD11b+/Cd11c− (mostly monocytes), CD11c+/CD11b+/Gr1− (mostly dendritic cells), CD19 (mostly B lymphocytes). Samples were acquired on a FACSCalibur flow cytometer and the data were analyzed using CELLQuest software (Becton Dickinson Immunocytometry Systems, San Jose, Calif.). In a second set of experiments, CXCR2 and CXCR1 expression on IHL Population was evaluated at the time point in which leucocyte infiltration gained the highest degree of infiltration.

diabetic C57 mice [4] = experiment: Allogeneic islet transplantation in bone marrow of diabetic mice; assay type: in vivo; settings: 400 EI Balb/c islets in bone marrow; Reparixin 8 mg/h/kg s.c. continuous infusion 7 days from day -1
Description: A control group of mice was treated with vehicle.

[5] = 1 and 3 months after transplantation, versus control mice

SMILES	Odds ratio, Multivariate Cox Regression Analysis of loss of graft survival (diabetic C57 mice [1])	Odds ratio, Multivariate Cox Regression Analysis of reaching primary function (diabetic C57 mice [1])	probability to reach the primary function (glycaemia<250 mg/dl) (diabetic C57 mice [1])	median time to reach the primary function (glycaemia<250 mg/dl) (diabetic C57 mice [1])	median survival time (graft) (diabetic C57 mice [1])	glucose elimination constant between 1 and 15 min (KG1-15), IVGTT (diabetic C57 mice [2]; [5])	glucose elimination constant between 1 and 60 min (KG1-60), IVGTT (diabetic C57 mice [2]; [5])	AUC for glucose during OGTT (diabetic C57 mice [2]; 1 and 3 months post transplant, versus control mice)	circulating levels of alanine aminotransferase (ALT), acute liver damage (diabetic C57 mice [2]; 24 h and 48 h after transplantation, 150 or 250 IE)	probability to reach euglycaemia (<200 mg/dl) (diabetic C57 mice [2]; syngeneic C57 islets, 150 or 250 IE in liver, Reparixin 8 mg/kg/h s.c. continuous infusion day -1 to 6 or 13, vehicle 35.1%)	median time to reach euglycaemia (<200 mg/dl) (diabetic C57 mice [2]; syngeneic C57 islets, 150 or 250 IE in liver, Reparixin 8 mg/kg/h s.c. continuous infusion, vehicle 50 days)	Odds ratio, Multivariate Cox Regression Analysis of reaching euglycaemia (diabetic C57 mice [2]; syngeneic transplant, 95% CI: 1.1-6.1, p<0.021)	circulating levels of white blood cells, red blood cells and platelets (diabetic C57 mice [2]; syngeneic transplant, data not shown)	leucocytes recruitment and infiltration in the liver ([3]; allogeneic transplant 400 EI, Reparixin 8 mg/h/kg s.c. continuous infusion 7 days from day -1)	PMNs in the liver ([3]; allogeneic transplant, Reparixin 8 mg/h/kg s.c., FIG. 8)	NKT cells in the liver ([3]; allogeneic transplant, Reparixin 8 mg/h/kg s.c., FIG. 9)	outcome (primary function and time to rejection) (diabetic C57 mice [4])	time to rejection (diabetic C57 mice [1]; mice that achieved primary function post-transplant, rejection = 2 consecutive non-fasting glucose readings >300 mg/dL)
CO[C@H]1C[C@@H]2CC[C@@H](C)[C@@](O)(O2)C(=O)C(=O)N2CCCC[C@H]2C(=O)O[C@H]([C@H](C)C[C@@H]2CC[C@@H](O)[C@H](OC)C2)CC(=O)[C@H](C)/C=C(\C)[C@@H](O)[C@@H](OC)C(=O)[C@H](C)C[C@H](C)/C=C/C=C/C=C/1C [Rapamycin, reference compound]	1.173	1.1	73%	1 days	8 ± 0.6 days													
CC(C)Cc1ccc([C@@H](C)C(=O)NS(C)(=O)=O)cc1 [Reparixin, R(−)-2-[(4-isobutylphenyl)propionyl]-methanesulfonamide]	0.252	2.5	72%	1 days	12 ± 0.6 days	significantly increased	significantly increased	remains lower than that of the control mice	not affected	50%	7 days	2.6	no difference	reduces	significantly affected	significantly affected	improved	significantly increased

— US20120202884A1, “INHIBITORS OF CXCR1/2 AS ADJUVANTS IN THE TRANSPLANT OF PANCREATIC ISLETS” (DOMPE' S.P.A., priority 2009, published 2012)
